The source of these data is patent publication US4361703A, “Para-amino(or nitro)phenyl N-acetylaminothioalkanoates” (priority 1977, dated 1982).

The structures appear in SMILES notation.

As a reminder, the half-life is the time needed for the level to fall by half in the phase considered.

The nature of data set [1]: in vivo. As to conditions: mouse, po.
Description: (A)--Investigation of Serum Concentrations in Mice
36 Charles River COBS mice (18 males and 18 females) weighing 30 g each were deprived of food for 16 hours before the trial but were given their usual drinking water. Three groups, each containing 6 males and 6 females, received a dosage of 1 ml/100 g body weight per mouse, orally by stomach tube, of a suspension in 1% gum tragacanth of respectively:
Group X: 500 mg/kg of N-acetyl-para-aminophenol
A blood sample was taken by throat-slitting from one male and one female from each Group at each study time, i.e. 1/2, 1, 2, 4 and 24 hours after the oral administration.
At times 1/2, 1, 2 and 4 hours, each serum sample was divided into three 0.1 ml trial samples for the following three determinations:
This determination was carried out by direct extraction, with no prior hydrolysis, according to an adaptation of the above-mentioned method.
The nature of data set [2]: Hydrolysis stability in tris buffer. In kind it is physicochemical. The protocol: PREPARATION OF TRIS BUFFER
0.05 M tris buffer was made by dissolving 6.05 grams of tris-(hydroxymethyl)-methylamine in 1000 ml. of water, and adjusting the pH to 7.2 by the addition of 0.1 M HCl.
(§1) Standard solutions of 1×10^-4 M Compound A in analytical grade methanol (0.01 ml) were prepared, and tested in the simulated gastric and intestinal fluids, in tris buffer alone, in tris buffer with added hog liver esterase and also in serum. The solutions under test were incorporated in 1 ml. of each of the test fluids. A temperature of 30° C. was used for the assays involving the hog liver esterase, whereas a temperature of 37° C. was used for the assays involving the simulated gastric and intestinal fluids and the serum. After this, the mixture was allowed to stand and the supernatant liquid was spotted onto silica t.l.c. plates and developed in 90:10 chloroform/methanol. The mixture was then extracted with 5 mls of chloroform and the chloroform-containing mixture was filtered through phase-separating papers, which allow only the chloroform solution to pass through. The chloroform solution was also spotted onto silica t.l.c. plates and developed in 90:10 chloroform/methanol.

Data set [3] is described as follows: Hydrolysis stability in simulated gastric fluid. In kind it is physicochemical. The protocol: (§2) In order first to evaluate the stability of Compound A in the gastro-intestinal tract, simulated gastric and intestinal fluids and other test fluids were prepared as follows:
PREPARATION OF SIMULATED GASTRIC FLUID
0.35 gram of sodium chloride, 0.5 gram of glycine and 94 ml of M hydrochloric acid were mixed, and the volume was then made up to 1000 ml with distilled water. The pH of this system was about 1.79.
as §1

A short description of data set [4]: Serum "total NAPA" in beagle dogs. The class given is in vivo. As to conditions: oral, last dose after 23 days. As for the experimental part: (§3) (B)--Investigation of Serum Concentrations in Beagle Dogs
(§4) 6 Beagle dogs (3 males and 3 females) were dosed once a day (at 08.00 hrs. each day) for 23 days with Compound A, suspended in 1% gum tragacanth, which was administered orally by oesophageal tube, at a rate of either 432 mg/kg (2 dogs, 1 male and 1 female) or 675 mg/kg (4 dogs, 2 male and 2 female). During this period the dogs received their usual food and water until 16.00 hrs. on the day before the test; but from that time until 08.00 hrs. on the day of the test they were given no food, although they received their usual drinking water. The usual dosage of Compound A was however given to the animal at 08.00 hrs. on the day of the test.
Without any further feeding, serum samples were then taken from each animal 2, 4 and 6 hours after the oral administration of Compound A, thus at 10.00 hrs., 12.00 hrs. and 14.00 hrs. on the day of the test. After the 6-hour serum sample had been taken, the animals received their usual food for a while; but they were again made to fast for 12 hours from 20.00 hrs. on the day of the test until 08.00 hrs. on the following day, when the last, 24-hour serum sample was taken. […]

The nature of data set [5]: Serum "free NAPA" in beagle dogs. Particulars: oral. The class given is in vivo. As for the experimental part: as §3, §4
Without any further feeding, serum samples were then taken from each animal 2, 4 and 6 hours after the oral administration of Compound A, thus at 10.00 hrs., 12.00 hrs. and 14.00 hrs. on the day of the test. After the 6-hour serum sample had been taken, the animals received their usual food for a while; but they were again made to fast for 12 hours from 20.00 hrs. on the day of the test until 08.00 hrs. on the following day, when the last, 24-hour serum sample was taken.
A direct determination similar to that used in Determination 2 above gave results for "free NAPA" as set out in Table IV below: […]

Data set [6] concerns Charles River (CD-1 COBS) albino mice. As to the kind of experiment: in vivo. As for the experimental part: (E)--Investigation of Acute Oral Toxicity in Mice
Charles River (CD-1 COBS) albino mice, 20-22 g in weight, were kept for some days in an air-conditioned animal house and fed with a standard diet (sterile VAR granules). They were fasted overnight before experiment, with water ad libitum. 15 Male mice and 15 female mice were used for each experiment.
N-Acetyl-para-aminophenol (NAPA) and N-acetyl-para-aminophenyl N'-acetyl-D,L-methionate (Compound A) were then administered to the mice, orally, as a suspension (shaken continuously with an electromagnetic agitator) in 5% gum arabic at a volume of 0.02 ml/g, either individually or in variously proportioned mixtures and at different dose levels, as shown in Table VII below.
A control group received only the 5% gum arabic vehicle.

Data set [7] in a line: Hydrolysis stability in human serum. In kind it is in vitro ADME. Particulars: 37° C.; for half-life: human serum from two volunteers. The protocol:
The serum used in the assays was prepared by taking whole blood into plain tubes, incubating for one hour at 37° C., and then centrifuging at 2000 RPM for 10 minutes.
as §1

A short description of data set [8]: Hydrolysis stability in simulated intestinal fluid. In kind it is physicochemical. As for the experimental part:
as §2
PREPARATION OF SIMULATED INTESTINAL FLUID
6.1 grams of monobasic potassium phosphate and 3.9 grams of disodium hydrogen phosphate were dissolved in 1000 ml. of water. The pH of the resulting solution was 6.85.
as §1

Turning to `CC(=O)Nc1ccc(O)cc1` [NAPA, N-acetyl-para-aminophenol], in data set [1] (500 mg/kg, Serum "free NAPA"), the concentration at 2 h came to 97 µg/mL and the concentration at 4 h came out at 32 µg/mL. Also, in data set [1] (1073 mg/kg), the concentration at 4 h stood at 32 µg/mL.
For the compound `CSCCC(NC(C)=O)C(=O)Oc1ccc(NC(C)=O)cc1` (racemic) [Compound A, N-acetyl-para-aminophenyl N'-acetyl-D,L-methionate], the half-life in data set [2] (pH 7.2, tris buffer pH 7.2, 30° C.) was roughly 7.92 h; in data set [2] (pH 7.2, tris buffer pH 7.2, 37° C.), 4 h; in data set [3] (pH 1.79, simulated gastric fluid, pH about 1.79, 37° C.), 40 h; in data set [7], 2.5 h; in data set [7] (human, serum, read-out: half-life), 2.33 h; in data set [8] (simulated intestinal fluid, pH 6.85, 37° C.) it was 31.5 h. Also, the rate of hydrolysis result in data set [3] (simulated gastric juice, 37° C.) was “very slow”; in data set [8] (simulated intestinal juice, 37° C.) it was “very slow”. Also, the “recovery of "total NAPA" in serum, time” value in data set [4] is on record as “up to 24 hours”. In addition, the hydrolysis in vivo entry in data set [5] (23 days) was “easily hydrolyzed”. Moreover, the “recovery of "free NAPA" in serum, time” value in data set [5] (last dose after 23 days) was “up to 6 hours”. Further, in data set [6] (mouse, in vivo), the behaviour / symptoms result was “hypothermia, tremor, tail extension, epistaxis and acrocyanosis, followed by death”. Further, the “LD50 compared with NAPA” value in data set [6] (oral, mice) is on record as “several times greater than that of the well-tried analgesic NAPA”. For the same compound, in data set [7], the “effect of human serum on the rate of hydrolysis” value is recorded as “increased the rate of hydrolysis”.
